From patent US11744830B2, “Ameliorative agent for cytokine release syndrome and so on” (TORII PHARMACEUTICAL CO., LTD., priority 2018, dated 2023)
Where a name gives a salt, the structure may show the parent alone.

Legend:
[1] = system: IFN-γ production in CD4^+ T cell-depleted PBMCs; assay: T-cell stimulation bead- and LPS stimulation-induced CRS toxicity evaluation system in CD4^+ T cell-depleted PBMCs: IFN-γ; format: cell-based; conditions: Homo sapiens, 72 h, CD3/CD28 + LPS, 3 days
Method: Cryopreserved human PBMCs were quickly thawed in a 37° C. thermostat and added to a tube containing medium. After centrifugation (at room temperature at 300 g for 10 minutes) to remove the supernatant, the cells were suspended again in the medium (10 mL), followed by counting the number of viable cells. The remainder of the cell suspension was centrifuged (at room temperature at 300 g for 10 minutes) to remove the supernatant, followed by addition of MACS Buffer in a volume of 80 μL and Human CD4 MicroBeads in a volume of 20 μL per 1×10^7 cells to suspend the cells. After being allowed to stand on ice for 15 minutes, the cell suspension was diluted with MACS Buffer (2 mL) and centrifuged (at room temperature at 300 g for 10 minutes) to remove the supernatant. MACS Buffer (500 μL) was added to the tube, and the cells were suspended and then applied to a separatory column to separate CD4^− cells (a pass-through fraction of CD4^+ cells). The CD4^− cell fraction was diluted to 15 mL with the medium and then centrifuged (at room temperature at 300 g for 10 minutes) to remove the supernatant, and the cells were then suspended again in the medium (1 mL), followed by counting the number of viable cells. […]
(§1) The collected culture supernatants were quantified for IFN-γ and IL-6 using Human IFN-γ DuoSet ELISA and Human IL-6 DuoSet ELISA.

[2] = system: IL-6 production from PBMCs; assay: T-cell stimulation bead- and LPS stimulation-induced CRS toxicity evaluation system in PBMCs: IL-6; format: cell-based, human; conditions: CD3/CD28 + LPS; for IC50: Homo sapiens, PBMC, 72 h, 3 days
Method: Cryopreserved PBMCs were quickly thawed in a 37° C. thermostat and added to a tube containing medium. After centrifugation (at room temperature at 300 g for 10 minutes) to remove the supernatant, the cells were suspended again in the medium (10 mL), followed by counting the number of viable cells. After centrifugation (at room temperature at 300 g for 10 minutes) to remove the supernatant, the medium was added to suspend the cells at 1×10^6 cells/mL. This cell suspension was seeded in a 96-well plate in a volume of 100 μl/well (1×10^5 cells/well) and allowed to stand in a CO2 incubator for 1 to 2 hours.
The cells were cultured in a CO2 incubator for 3 days to collect the culture supernatants.
as §1

[3] = system: OPN production from CD14^+ cells; assay: LPS stimulation-induced OPN production in CD14^+ cells; format: cell-based, human; conditions: for IC50: Homo sapiens, 72 h, LPS 500 ng/mL, 3 days
Method: Cryopreserved PBMCs were quickly thawed in a 37° C. thermostat and added to a tube containing medium. After centrifugation (at room temperature at 300 g for 10 minutes) to remove the supernatant, the cells were suspended again in the medium, followed by counting the number of viable cells. The cell suspension was centrifuged (at room temperature at 300 g for 10 minutes) to remove the supernatant, followed by addition of MACS Buffer to suspend the cells, to which Human CD14 MicroBeads were further added. After being allowed to stand on ice for 15 minutes, the cell suspension was diluted with MACS Buffer and centrifuged (at room temperature at 300 g for 10 minutes) to remove the supernatant. MACS Buffer was added to the tube, and the cells were suspended and then applied to a separatory column to separate CD14^+ cells. The CD14^+ cell fraction was diluted with the medium and then centrifuged (at room temperature at 300 g for 10 minutes). The supernatant was removed and the cells were suspended in the medium (1 mL), followed by counting the number of viable cells. The cell suspension was adjusted with the medium to 2.4×10^5 or 3×10^5 cells/mL and seeded in a 96-well plate (2.4×10^4 cells/well), which was then allowed to stand in a CO2 incubator for 1 to 2 hours.
The collected culture supernatants were quantified for OPN using Human OPN DuoSet ELISA.

[4] = system: killer activity of CAR-T cells; assay: Killer activity of CAR-T cells (CAR-T cells, target cells and CD14^+ cells, luciferase); format: cell-based, human; conditions: 2 days
Source text: FMC63 scFv, the hinge, transmembrane and cytoplasmic domains of CD28 and the cytoplasmic domain of CD3-ζ were used to construct anti-CD19 CAR on the basis of the method of Kochenderfer, et al.^15). The sequence was obtained from GenBank (HM852952) and an IDT codon optimization tool (http://sg.igtdna.com/CodonOpt) was used to remove BamHI recognition sequences within FMC63. The optimized FMC63-28z sequence was chemically synthesized and amplified by polymerase chain reaction (PCR) with the following primer set.
The PCR product was inserted into the multicloning site (EcoRI and BamHI) of lentivirus plasmid CSII-EF-MCS-2A-eGFP by using an In-Fusion HD cloning kit to obtain CSII-EF-FMC63-28z-2A-eGFP. To prepare a lentivirus vector, CSII-EF-FMC63-28z-2A-eGFP and a packaging plasmid (pMDLg/p.RRE, pRSV-rev and pMD.G) were co-transfected into Lenti-X293T cells. The prepared lentivirus vector was infected into peripheral blood mononuclear cells stimulated with anti-CD3 antibody, anti-CD28 antibody and IL-2, followed by FACS sorting to obtain a CD3-positive and eGFP-positive fraction as CAR-T cells.
On the basis of the method of Kochenderfer, et al.^15), the open reading frame of human CD19 was synthesized and amplified by PCR with the following primers. […]
Subsequently, luciferase activity was determined by detection of emission intensity with an EnSpire 2300.

SMILES	IC50 [1] [nM]	IC50 [2] [nM]	IC50 [3] [nM]	suppressive effect on OPN production ([3]; LPS)	effect on the killer activity of CAR-T cells [4]	Ratio (IL-6/IFN-γ) of IC50 values [2]
C[C@]12C=CC(=O)C=C1CC[C@@H]1[C@@H]2[C@@H](O)C[C@@]2(C)[C@H]1CC[C@]2(O)C(=O)CO [PSL, Prednisolone]	42	3570	> 30000	no suppressive effect	suppressive effect on the killer activity of CAR-T cells in a concentration-dependent manner	–
CCOC(=O)[C@H](Cc1ccccc1)NC(=O)c1cc(Cl)c(OCCN2CCN(C)CC2)c(Cl)c1O [JTE-607, (−)-ethyl N-{3,5-dichloro-2-hydroxy-4-[2-(4-methylpiperazin-1-yl)ethoxy]benzoyl}-L-phenylalaninate dihydrochloride]	80.9	40.4	132	–	did not affect	0.81
